Source: publication PMC7138900, “Characterization of MaltOBP1, a Minus-C Odorant-Binding Protein, From the Japanese Pine Sawyer Beetle, Monochamus alternatus Hope (Coleoptera: Cerambycidae)” (Frontiers in Physiology, 2020)
pIC50, pKd, pKi: −log10 of the molar value. Where two headings read alike, the source gives them in different places.

What was measured:
[1] = target: T1, recombinant MaltOBP1 (Monochamus alternatus, UniProt A6YIT8); assay: Competitive ligand-binding assay (1-NPN displacement); settings: for binding affinity to MaltOBP1 (in words): fluorescence competitive binding; for pKi: Ki = [IC50]/(1 + [1-NPN]/K1-NPN), read-out: Ki (dissociation constant)
T1 sequence (A6YIT8 entry or part of it): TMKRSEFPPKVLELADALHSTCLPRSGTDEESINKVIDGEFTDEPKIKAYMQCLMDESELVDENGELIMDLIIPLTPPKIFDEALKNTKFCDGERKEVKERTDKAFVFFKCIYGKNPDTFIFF
Procedure: (§1) Ligand-binding assays were performed on a HORIBA FluoroMax®-4 Fluorescence spectrophotometer (HORIBA Scientific, United States) with a 1 cm light path quartz cuvette and 5 nm slits for both excitation and emission. The purified MaltOBP1 protein, served in the 1 cm light path quartz cuvette, was titrated with 1 nM 1-N-phenyl naphtylamine (1-NPN, Sigma, Riedstr, Steinheim, Germany) solution in methanol. The fluorescence intensity at the maximum emission wavelength of about 337 nm was linearized using the Scatchard equation ([Sideris et al., 1992]), and then binding affinity for MaltOBP1/1-NPN was calculated.
To assess the binding affinities of ligands to MaltOBP1, a mixture of 1-NPN and MaltOBP1 protein was titrated with 1 μM of each ligand dissolved in methanol. IC50 was obtained by data linearization, and the dissociation constant (Ki) was calculated following the equation: Ki = [IC50]/(1 + [1-NPN]/K1–NPN), where [1-NPN] is the free concentration of 1-NPN and K1–NPN is the dissociation constant of the protein/1-NPN complex ([Campanacci et al., 2001]), which was calculated from the binding curve using GraphPad Prism 5.01 (GraphPad Software, Inc.).

[2] = target: T1, recombinant MaltOBP1; assay: 1-NPN fluorescence binding assay (Scatchard); settings: fluorescent probe titration, Scatchard linearization; read-out: dissociation constant of MaltOBP1/1-NPN
Procedure: as §1

[3] = competitive displacement of 1-NPN from MaltOBP1, ligands in methanol, read-out: IC50

Row | Compound | binding affinity to MaltOBP1 (in words) [1] | pKd [2] | pKi [1] | pIC50 [1, 3] | pIC50 [1]
1 | CC1=CCC2C(C1)C2(C)C (single isomer, unassigned; (+)) [(+)-3-carene] | no binding affinity |  |  |  | 
2 | c1ccc(Nc2cccc3ccccc23)cc1 [1-NPN, 1-N-phenyl naphtylamine] |  | 5.41 |  |  | 
3 | C=C(C)[C@H]1CC=C(C)CC1 [(R)-(+)-limonene] | high binding affinity |  | 4.89 | 4.66 | 
4 | CC1=CC(=O)[C@H]2C[C@@H]1C2(C)C [(−) -verbenone] | high binding affinity |  | 4.43 | 4.20 | 
5 | C=C1CC/C=C(\C)CC[C@@H]2[C@@H]1CC2(C)C [(−)-trans-caryophyllene] | high binding affinity |  |  |  | 5.15
6 | C=C1[C@H]2CC[C@H](C2)C1(C)C [comphene, Comphene] | no binding affinity |  |  |  | 
7 | C=CC(=C)CCC=C(C)C [myrcene] | no binding affinity |  |  |  | 
8 | C=C1CCC2CC1C2(C)C (stereo not drawn) [β- Pinene] | high binding affinity |  |  |  | 4.41
9 | (+)-α-Pinene | high binding affinity |  | 4.73 | 4.50 | 
